Data reported in ChEMBL document CHEMBL5360653, “Marine Alkaloid Lepadins E and H Induce Ferroptosis for Cancer Chemotherapy” (J Med Chem, 2023).
Calls of active or inactive are those of the source. No cut-off for these calls is given here.

Experiments:
[1] = test system: HeLa; test: Cytotoxicity against human HeLa cells incubated for 72 hrs by MTT assay; type: functional, cell-based
[2] = test system: SMMC-7721; test: Cytotoxicity against human SMMC-7721 cells incubated for 72 hrs by MTT assay; type: functional, cell-based; conditions: SMMC-7721, 72 h
[3] = test system: A549; test: Cytotoxicity against human A549 cells incubated for 72 hrs by MTT assay; type: functional, cell-based; conditions: A549, 72 h
[4] = test system: MCF7; test: Cytotoxicity against human MCF7 cells incubated for 72 hrs by MTT assay; type: functional, cell-based; conditions: MCF7, 72 h
[5] = test system: SH-SY5Y; test: Cytotoxicity against human SH-SY5Y cells incubated for 72 hrs by MTT assay; type: functional, cell-based
[6] = test system: HepG2; test: Cytotoxicity against human HepG2 cells incubated for 72 hrs by MTT assay; type: functional, cell-based; conditions: HepG2, 72 h
[7] = test system: NCI-H1155; test: Cytotoxicity against human NCI-H1155 cells incubated for 72 hrs by MTT assay; type: functional, cell-based; conditions: NCI-H1155, 72 h
[8] = test system: SK-OV-3; test: Cytotoxicity against human SK-OV-3 cells incubated for 72 hrs by MTT assay; type: functional, cell-based; conditions: SK-OV-3, 72 h
[9] = test system: MDA-MB-231; test: Cytotoxicity against human MDA-MB-231 cells incubated for 72 hrs by MTT assay; type: functional, cell-based; conditions: MDA-MB-231, 72 h
[10] = test system: NCI-H1355; test: Cytotoxicity against human NCI-H1355 cells incubated for 72 hrs by MTT assay; type: functional, cell-based; conditions: NCI-H1355, 72 h
[11] = test system: L02; test: Cytotoxicity against human L02 cells incubated for 72 hrs by MTT assay; type: functional, cell-based; conditions: L02, 72 h
[12] = test system: HeLa; test: Inhibition of colony formation in human HeLa cells treated for 24 hrs measured by paraformaldehyde based crystal violet staining analysis; type: functional, cell-based; conditions: dose 5-9 µM
[13] = test system: HeLa; test: Inhibition of colony migration in human HeLa cells treated for 24 hrs measured by paraformaldehyde based crystal violet staining analysis; type: functional, cell-based; conditions: dose 0.625-10 µM
[14] = test system: HeLa; test: Inhibition of colony formation in human HeLa cells treated at 9 uM for 24 hrs measured by paraformaldehyde based crystal violet staining analysis; type: functional, cell-based
[15] = test system: HeLa; test: Inhibition of colony formation in human HeLa cells treated upto 6 uM for 24 hrs measured by paraformaldehyde based crystal violet staining analysis; type: functional, cell-based
[16] = test system: HeLa; test: Induction of apoptosis in human HeLa cells assessed as increase in cleaved PARP expression level at 10 uM by immunoblotting analysis; type: functional, cell-based
[17] = test system: HeLa; test: Induction of apoptosis in human HeLa cells assessed as apoptotic cells incubated at 10 uM for 24 hrs measured by annexin V-PI staining based FITC analysis (Rvb ~ 5%); type: functional
[18] = test system: HeLa; test: Induction of apoptosis in human HeLa cells assessed as viable cells incubated at 4 uM for 24 hrs measured by annexin V-PI staining based FITC analysis (reference value: 93.9%); type: functional; conditions: read-out: Activity
[19] = test system: HeLa; test: Induction of apoptosis in human HeLa cells assessed as viable cells incubated at 6 uM for 24 hrs measured by annexin V-PI staining based FITC analysis (reference value: 93.9%); type: functional; conditions: read-out: Activity
[20] = test system: HeLa; test: Induction of apoptosis in human HeLa cells assessed as viable cells incubated at 8 uM for 24 hrs measured by annexin V-PI staining based FITC analysis (reference value: 93.9%); type: functional; conditions: read-out: Activity
[21] = test system: HeLa; test: Induction of apoptosis in human HeLa cells assessed as viable cells incubated at 10 uM for 24 hrs measured by annexin V-PI staining based FITC analysis (reference value: 93.9%); type: functional; conditions: read-out: Activity
[22] = test system: HeLa; test: Induction of apoptosis in human HeLa cells assessed as necrotic cells incubated at 4 uM for 24 hrs measured by annexin V-PI staining based FITC analysis (reference value: 0.70%); type: functional
[23] = test system: HeLa; test: Induction of apoptosis in human HeLa cells assessed as late apoptotic cells incubated at 6 uM for 24 hrs measured by annexin V-PI staining based FITC analysis (reference value: 1.81%); type: functional
[24] = test system: HeLa; test: Upregulation of p53 expression in human HeLa cells measured at 4 to 10 uM for 24 hrs by Western blotting analysis; type: functional, cell-based; conditions: dose 4-10 µM
[25] = test system: HeLa; test: Upregulation of p21 expression in human HeLa cells measured at 4 to 10 uM for 24 hrs by Western blotting analysis; type: functional, cell-based; conditions: dose 4-10 µM
[26] = test system: HeLa; test: Induction of apoptosis in human HeLa cells assessed as late apoptotic cells incubated at 10 uM for 24 hrs measured by annexin V-PI staining based FITC analysis (reference value: 2.3%); type: functional
[27] = test system: HeLa; test: Induction of ROS generation in human HeLa cells assessed as increase in ROS level; type: functional, cell-based; conditions: dose 4-10 µM
[28] = test system: HeLa; test: Induction of ROS generation in human HeLa cells assessed as increase in ROS level at 10 uM incubated for 1 hrs (reference value: 39.6%); type: functional
[29] = test system: HeLa; test: Cytotoxicity against human HeLa cells assessed as increase in cell viability pretreated with NAC for 1 hr followed by compound addition at 2.5 to 20 uM for 24 hrs relative to control; type: functional; conditions: dose 2.5-20 µM
[30] = test system: HeLa; test: Effect on lipid peroxidation in human HeLa cells measured at 10 to 12 uM for 4 hrs by C11-BODIPY581/591 staining based flow cytometric analysis relative to control; type: functional; conditions: dose 10-12 µM
[31] = test system: HeLa; test: Cytotoxicity against human HeLa cells assessed as increase in cell viability pretreated with Ferrostatin-1 for 4 hrs followed by compound addition at 10 uM for 24 hrs; type: functional, cell-based
[32] = test system: HeLa; test: Cytotoxicity against human HeLa cells assessed as increase in cell viability pretreated with DFO for 4 hrs followed by compound addition at 10 uM for 24 hrs; type: functional, cell-based
[33] = test system: B16-F10; test: Cytotoxicity against mouse B16-F10 cells incubated for 72 hrs by MTT assay; type: functional, cell-based; conditions: B16-F10, 72 h
[34] = test system: B16-F10; test: Induction of ferroptosis in mouse B16-F10 cells assessed as downregulation of GPX4 level measured at 4 to 10 uM by Western blotting analysis; type: functional, cell-based; conditions: dose 4-10 µM
[35] = test system: B16-F10; test: Induction of ferroptosis in mouse B16-F10 cells assessed as increase in ACSL4 level measured at 4 to 10 uM by Western blotting analysis; type: functional, cell-based; conditions: dose 4-10 µM
[36] = test system: B16-F10; test: Antitumor activity against mouse B16-F10 cells allografted in immunocompetent C57BL/6J mouse assessed as reduction of tumor growth administered at 30 mg/kg, ip daily for 14 days (reference value: 1500 mm^3); type: functional; conditions: time 14 day
[37] = Toxicity in immunocompetent C57BL/6J mouse allografted with B16-F10 cells assessed as tissue damage in spleen administered at 30 mg/kg, ip daily for 14 days by hematoxylin and eosin staining analysis; type: organism-based; conditions: in vivo, 336 h, time 14 day
[38] = test system: HeLa; test: Induction of apoptosis in human HeLa cells assessed as early apoptotic cells incubated at 4 uM for 24 hrs measured by annexin V-PI staining based FITC analysis (reference value: 3.94%); type: functional
[39] = test system: HeLa; test: Induction of ROS generation in human HeLa cells assessed as increase in ROS level at 10 uM incubated for 0.5 hrs (reference value: 37.8%); type: functional
[40] = test system: HeLa; test: Induction of ROS generation in human HeLa cells assessed as increase in ROS level at 10 uM incubated for 1 hrs (reference value: 37.8%); type: functional
[41] = test system: HeLa; test: Induction of ROS generation in human HeLa cells assessed as increase in ROS level at 20 uM incubated for 1 hrs (reference value: 37.8%); type: functional

## CCC/C=C/C=C/C(=O)O[C@@H]1C[C@H]2[C@@H](CCCC[C@H](O)CCC)CCC[C@H]2N[C@H]1C
[1]
  IC50: 2.52 µM
[2]
  IC50: 4.09 µM
[3]
  IC50: 4.68 µM
[4]
  IC50: 5.03 µM
[5]
  IC50: 5.8 µM
[6]
  IC50: 6.2 µM
[7]
  IC50: 7.06 µM
[8]
  IC50: 8.02 µM
[9]
  IC50: 8.51 µM
[10]
  IC50: 9.3 µM
[11]
  IC50: 12.5 µM
[12]
  inhibition: Dose-Dependent Effect
[13]
  inhibition: Dose-Dependent Effect
[14]
  inhibition: Active
[15]
  inhibition: inactive
[16]
  Activity: Active
[17]
  Activity: ~70%
[18]
  viability at 4 µM: 91.8%
[19]
  viability at 6 µM: 88.4%
[20]
  viability at 8 µM: 76.1%
[21]
  viability at 10 µM: 26.1%
[22]
  Activity: 1.14%
[23]
  Activity: 3.94%
[24]
  Activity: Active
[25]
  Activity: Active
[26]
  Activity: 45.3%
[27]
  Activity: Dose-Dependent Effect
[28]
  Activity: 81.5%
[29]
  Activity: 5%
[30]
  Activity: 10%
[31]
  Activity: Not toxic
[32]
  Activity: Not toxic
[33]
  IC50: 3.14 µM
[34]
  Activity: Active
[35]
  Activity: Active
[36]
  Activity: <500 mm3
[37]
  Activity: Non-Toxic

## CCCCC/C=C/C(=O)O[C@@H]1C[C@H]2[C@@H](CCCC[C@H](O)CCC)CCC[C@H]2N[C@H]1C
[1]
  IC50: 2.67 µM
[2]
  IC50: 3.93 µM
[3]
  IC50: 5.93 µM
[4]
  IC50: 5.95 µM
[5]
  IC50: 6.19 µM
[6]
  IC50: 6.2 µM
[7]
  IC50: 7.88 µM
[8]
  IC50: 7.94 µM
[9]
  IC50: 8.04 µM
[10]
  IC50: 8.8 µM
[11]
  IC50: 18.7 µM
[12]
  inhibition: Dose-Dependent Effect
[13]
  inhibition: Dose-Dependent Effect
[14]
  inhibition: Active
[15]
  inhibition: inactive
[16]
  Activity: Active
[17]
  Activity: ~50%
[18]
  viability at 4 µM: 91.4%
[38]
  Activity: 5.32%
[19]
  viability at 6 µM: 65%
[20]
  viability at 8 µM: 52.2%
[21]
  viability at 10 µM: 45.3%
[24]
  Activity: Active
[25]
  Activity: Active
[27]
  Activity: Dose-Dependent Effect
[39]
  Activity: 55.1%
[40]
  Activity: 62.3%
[41]
  Activity: 86.9%
[29]
  Activity: 5%
[30]
  Activity: 10%
[31]
  Activity: Not toxic
[32]
  Activity: Not toxic
